# In patent publication US12636284B2, “Compositions for use in the prevention and/or treatment of intellectual disability and neurodegenerative diseases in a subject with down syndrome” (UNIVERSITA' DEGLI STUDI DI ROMA “LA SAPIENZA”, priority 2021, dated 2026):
# Columns and labels:
# [1] = tested on: spontaneous neurotransmitter release in Eu mice; assay: Patch-clamp electrophysiology, CA1 neurons of hippocampal sections, euploid mice; type: in vivo, mouse; conditions: after 21 days intranasal treatment
# Excerpt: The brain sections containing the hippocampus were obtained from mice belonging to the four experimental groups (Eu Veh, Eu SITA, Ts2 Veh and Ts2 SITA) at 9 months of age after being euthanized by an overdose of isofluorane. Brains were quickly removed and placed in an ice-cold cutting solution containing the following (in mM): 124 NaCl, 3.2 KCl, 1 NaH2PO4, 2 MgCl2, 1 CaCl2), 26 NaHCO3, 10 glucose, 2 Na-pyruvate and 0.6 ascorbic acid, pH 7.4, 95% O2/5% CO2. The brain sections containing the hippocampus ([…]) were cut using a vibratome (VT1000S; Leica Microsystems) and immediately transferred to an incubation chamber filled with ACSF containing the following (in mM): 124 NaCl, 3.2 KCl, 1 NaH2PO4, 1 MgCl2, 2 CaCl2, 26 NaHCO3 and 10 glucose, pH 7.4, 95% O2/5% CO2. Brain sections were allowed to recover at 32° C. for 1 hour before being equilibrated to room temperature. For electrophysiological recordings, brain sections were transferred to a recording chamber constantly perfused with heated ACSF (32° C.) and bubbled with 95% O2/5% CO2. Subsequently, the slices were used for electrophysiological recordings. All electrophysiological recordings were performed using the patch-clamp technique in the whole-cell configuration. […] Membrane capacity and resistance were assessed in the same neurons. […]
# DYRK1A protein = assay: Western blot of DYRK1A protein levels in hippocampus; type: in vivo, mouse; conditions: hippocampus of Ts2Cje mice, 21 days intranasal treatment
# Experimental: Finally, animals were sacrificed using cervical dislocation. […] For Western blots, 20 μg of proteins from the hippocampus of mice belonging to the four experimental groups were separated by 4-15% SDS-PAGE CriterionTM […] (Bio-rad, Hercules, CAUSE). […] Therefore, the gel, once the image has been acquired, represents the total of the loaded proteins (Total Load), which will then be used to normalize the specific proteins to be examined. After electrophoresis and gel imaging, proteins are transferred via the semi-dry TransBlot Turbo apparatus (Bio-Rad Laboratories) onto nitrocellulose membranes (Bio-Rad, Hercules, CA, USA). Nitrocellulose membranes are blocked with 3% bovine serum albumin (BSA) in a solution of Tween 20-TBS and incubated overnight at 4° C. using specific primary antibodies: p([…])-GSK3B (1:1000, Santa Cruz, #sc-135653), p(S9)-GSK3β (1:1000, Cell Signaling, #5558S), GSK3β (1:1000 Abcam, #93926) and DYRK1A (1:1000, Cell Signaling, #8765S), MAPK44/42 (1:1000, Cell Signaling, #9102), p[…])-MAPK44/42 (1 1000, Cell Signaling, #9101), Akt (1:2000, Bio-Rad, # vma00253K), p(S473) Akt (1:1000, Cell Signaling, #4060S). After three washes with a T-TBS buffer solution, membranes were incubated for 1 hour at room temperature with the secondary antibodies. […] Finally, the results obtained were analyzed using the ImageLab program (Bio-rad, Hercules, CA, USA).
# GSK3b protein = assay: GSK3b activation (pSer9/pTyr216 ratio) in primary hippocampal neurons isolated from Ts2Cje mice; type: cell-based, mouse; conditions: 1, 5, 10 μM for 24 hours
# Experimental: For Western blots, 20 μg of proteins from the hippocampus of mice belonging to the four experimental groups were separated by 4-15% SDS-PAGE CriterionTM […] (Bio-rad, Hercules, CAUSE). […] Therefore, the gel, once the image has been acquired, represents the total of the loaded proteins (Total Load), which will then be used to normalize the specific proteins to be examined. After electrophoresis and gel imaging, proteins are transferred via the semi-dry TransBlot Turbo apparatus (Bio-Rad Laboratories) onto nitrocellulose membranes (Bio-Rad, Hercules, CA, USA). Nitrocellulose membranes are blocked with 3% bovine serum albumin (BSA) in a solution of Tween 20-TBS and incubated overnight at 4° C. using specific primary antibodies: p([…])-GSK3B (1:1000, Santa Cruz, #sc-135653), p(S9)-GSK3β (1:1000, Cell Signaling, #5558S), GSK3β (1:1000 Abcam, #93926) and DYRK1A (1:1000, Cell Signaling, #8765S), MAPK44/42 (1:1000, Cell Signaling, #9102), p[…])-MAPK44/42 (1 1000, Cell Signaling, #9101), Akt (1:2000, Bio-Rad, # vma00253K), p(S473) Akt (1:1000, Cell Signaling, #4060S). After three washes with a T-TBS buffer solution, membranes were incubated for 1 hour at room temperature with the secondary antibodies. Secondary antibodies with peroxidase activity are anti-mouse or anti-rabbit (1:5000, Bio-rad, Hercules, CA, USA). […] Finally, the results obtained were analyzed using the ImageLab program (Bio-rad, Hercules, CA, USA). […] In order to isolate primary hippocampal neurons, hippocampi from Ts and euploid mice were mechanically dissociated in PBS (with Ca^2+ and […]) and centrifuged (3 minutes, 1100 rpm, 25° C.). Subsequently, the pellet was resuspended in 0.25% trypsin solution and centrifuged further for 3 minutes at 1100 rpm at Tamb. At this point, the cell extract was resuspended in MEM 1 culture medium (Minimum Essential Medium complemented with fetal bovine serum (FBS-1%), L-glutamine 200 mM (1%), glucose 25 mM (1%), gentamicin 0.1 mg/ml) and centrifuged for 10 minutes, 1100 rpm at 25° C. […]
smiles,measurement,setting,value
"N[C@@H](CC(=O)N1CCn2c(nnc2C(F)(F)F)C1)Cc1cc(F)c(F)cc1F [sitagliptin, (R)-4-oxo-4-[3-(trifluoromethyl)-5,6-dihydro[1,2,4]triazole[4,3-a]pyrazin-7(8H)-yl]-1-(2,4,5-trifluorophenyl)butan-2-amine]",frequency and extent of spontaneous release of neurotransmitters,[1],no effect
same,expression levels of the DYRK1A protein,DYRK1A protein,significant reduction
same,activity of the GSK3B protein in Ts2Cje neurons,GSK3b protein,significant increase
